Laboratory results published in patent US20050074829A1, “Methods for identifying inhibitors of sterol 14-alpha-demethylase” (priority 2003, published 2005).

What was measured:
OBT-DM [1] = biological target: T1, OBT-DM (Arabidopsis thaliana, UniProt Q9SAA9); conditions: for wavelength of maximum absorbance in difference spectrum / wavelength of minimum absorbance in difference spectrum: 0.25 mg/ml OBT-DM in 50 mM HEPES pH 7.2, 1 μL of 1 mM inhibitor added, spectrum 300-500 nm
T1 sequence (Q9SAA9 35-488): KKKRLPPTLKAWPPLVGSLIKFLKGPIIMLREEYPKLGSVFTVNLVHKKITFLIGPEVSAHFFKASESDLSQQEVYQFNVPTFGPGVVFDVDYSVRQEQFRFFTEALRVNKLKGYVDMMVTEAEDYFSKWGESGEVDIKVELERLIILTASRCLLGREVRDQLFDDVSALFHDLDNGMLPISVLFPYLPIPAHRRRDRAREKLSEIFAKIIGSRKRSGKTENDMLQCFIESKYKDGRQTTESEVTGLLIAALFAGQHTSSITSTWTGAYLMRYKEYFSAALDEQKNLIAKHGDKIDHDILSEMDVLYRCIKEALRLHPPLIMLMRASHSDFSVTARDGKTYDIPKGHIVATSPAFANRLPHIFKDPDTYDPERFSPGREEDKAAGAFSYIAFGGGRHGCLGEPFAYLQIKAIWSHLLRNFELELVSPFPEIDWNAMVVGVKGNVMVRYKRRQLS
Method: An OBT-DM solution (0.25 mg/ml) in 50 mM HEPES, pH 7.2, was placed in a micro-quartz cuvette with 1 cm path length. The solution was used to blank a Hewlett Packard 8453 spectrometer. Then 1 μL of a 1 mM solution of type II inhibitor in 50% (v/v) DMSO ethanol was added and the spectrum was acquired between the 300 and 500 nm region.

OBT-DM [2] = biological target: T2, OBT-DM (Arabidopsis thaliana, UniProt Q9SAA9); test: Equilibrium inhibitory constant for OBT-DM (no method given); assay type: binding
T2 sequence (Q9SAA9 1-488): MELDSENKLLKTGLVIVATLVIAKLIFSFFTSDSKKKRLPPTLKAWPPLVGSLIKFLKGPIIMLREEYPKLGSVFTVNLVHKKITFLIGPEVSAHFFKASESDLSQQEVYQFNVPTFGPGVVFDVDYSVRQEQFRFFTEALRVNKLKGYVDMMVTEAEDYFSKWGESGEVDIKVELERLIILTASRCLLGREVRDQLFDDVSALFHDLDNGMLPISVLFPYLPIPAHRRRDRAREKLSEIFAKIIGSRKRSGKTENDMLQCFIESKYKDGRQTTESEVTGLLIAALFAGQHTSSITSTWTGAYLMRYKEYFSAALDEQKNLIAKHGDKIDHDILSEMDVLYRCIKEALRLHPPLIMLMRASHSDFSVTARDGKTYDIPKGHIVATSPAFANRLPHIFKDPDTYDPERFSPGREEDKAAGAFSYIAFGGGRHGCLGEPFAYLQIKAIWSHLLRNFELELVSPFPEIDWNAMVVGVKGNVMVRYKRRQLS

OBT-DM [3] = biological target: T1, OBT-DM; test: 384-well assay for identification of inhibitors of OBT-DM, read at 413 nm with 432 nm as reference; assay type: binding; design: made in house; host or cells: E. coli Rosetta DE3 pLysS; conditions: 10 μM compound, 0.4 mg/ml OBT-DM, 20 min room temperature; negative control wells 0.09-0.12
Method: The assay was performed using 0.4 mg/ml OBTDM in 50 mM HEPES, pH 7.2, and 0.01% Tween 20 in all wells plus 10 μM Ketoconazole (positive control) in 50 mM HEPES, pH 7.2, and 0.01% Tween 20 in plate rows A-H; 10 μM compounds numbered 1-24 in 50 mM HEPES, pH 7.2, and 0.01% Tween 20 in row I; and 50 mM HEPES, pH 7.2, and 0.01% Tween 20 in rows K-P (negative control).
The assay was set up in a 384-well plate format and initiated by the addition of 40 μl of 20 μM Ketoconazole (ICN Biomedicals, Inc., Irvine, Calif.) in 50 mM HEPES, pH 7.2, 0.01% Tween 20, to rows A-H to a final concentration of 10 μM (positive control) and 40 μl of 50 mM HEPES, pH 7.2, 0.01% Tween 20, to rows K-P (negative control). Test compounds were added to a concentration of 10 μM in row I by manual addition of 40 μl of a 20 μM solution (compounds assigned numbers from 1-24). Then 40 μl of an 0.8 mg/ml solution of OBT-DM protein in 50 mM HEPES, pH 7.2, 0.01% Tween 20 (from Example 2) was added to all wells to a final concentration of 0.4 mg/ml via multidrop.

wavelength of maximum absorbance in difference spectrum (OBT-DM [1])	wavelength of minimum absorbance in difference spectrum (OBT-DM [1])	magnitude of the type II difference spectrum signal (OBT-DM [1]; comparison among inhibitors studied)	SMILES	Ki (OBT-DM [2])	absorbance reading at 413 nm using 432 nm as reference wavelength (OBT-DM [3])
432 nm	413 nm	maximum magnitude of the signal	CC(=O)N1CCN(c2ccc(OCC3COC(Cn4ccnc4)(c4ccc(Cl)cc4Cl)O3)cc2)CC1 (stereo not drawn) [Ketoconazole]		
432 nm	413 nm		Clc1ccccc1C(c1ccccc1)(c1ccccc1)n1ccnc1 [Compound 4, Clotrimazole]		
			Nc1nc[nH]n1 [Compound 10, 3-amino-1,2,4-triazole]	> 10 µM	negative result
432 nm	413 nm		OC(Cn1cncn1)(Cn1cncn1)c1ccc(F)cc1F [Compound 2, Fluconazole]		
